Test results published in patent publication EP0429856A2, “Pharmaceutical preparation containing a metal salt of ibuprofen and process for making same” (Dolorgiet GmbH & Co. KG, priority 1989, dated 1991).

Assay: Solubility of ibuprofen salts in saturated solutions at room temperature (HPLC, UV detection)
Description: Zur Bestimmung der Löslichkeit der Ibuprofen-Salze werden bei Raumtemperatur gesättigte Lösungen hergestellt. Ein aliguoter Teil dieser Lösungen wird mit einem mit der Lösung mischbaren Lösungsmittel verdünnt und der Gehalt an Ibuprofen mittels HPLC über eine Reversed-Phase-Säule und UV-Detektion bestimmt.

[1] = 1,2-Propandiol/Glycerin/Wasser (2/4/3;v/v/v)
[2] = 1,2-Propandiol/Polyethylenglykol 400/Wasser (5/3/6;v/v/v)
[3] = Cabrylic/Capric Triglyceride (Miglyol 810)
[4] = Caprylic/Capric Triglyceride (Miglyol 812)
[5] = Ethanol/1,2-Propandiol/Wasser (1/4/4;v/v/v)
[6] = Polyoxyethylen-(7)-glycerin-kokosnußöfettsäure-ester
[7] = Polyoxyethylierte Olein-Glyceride (Labrafil M 1944 CS)

| Substance | Löslichkeit von Ibuprofen-Salzen bei Raumtemperatur (1,2-Propandiol) | Löslichkeit von Ibuprofen-Salzen bei Raumtemperatur [1] | Löslichkeit von Ibuprofen-Salzen bei Raumtemperatur [2] | Löslichkeit von Ibuprofen-Salzen bei Raumtemperatur [3] | Löslichkeit von Ibuprofen-Salzen bei Raumtemperatur [4] | Löslichkeit von Ibuprofen-Salzen bei Raumtemperatur (Ethanol) [mg Ibuprofen/ml] | Löslichkeit von Ibuprofen-Salzen bei Raumtemperatur [5] | Löslichkeit von Ibuprofen-Salzen bei Raumtemperatur (Glycerin) | Löslichkeit von Ibuprofen-Salzen bei Raumtemperatur (Glycerinmonoricinoleat) | Löslichkeit von Ibuprofen-Salzen bei Raumtemperatur (Isopropylmyristat) [mg Ibuprofen/ml] | Löslichkeit von Ibuprofen-Salzen bei Raumtemperatur (Paraffinum supl.) | Löslichkeit von Ibuprofen-Salzen bei Raumtemperatur (Polyethylenglykol 400) [mg Ibuprofen/ml] | Löslichkeit von Ibuprofen-Salzen bei Raumtemperatur [6] [mg Ibuprofen/ml] | Löslichkeit von Ibuprofen-Salzen bei Raumtemperatur [7] [mg Ibuprofen/ml] | Löslichkeit von Ibuprofen-Salzen bei Raumtemperatur (Wasser) |
| --- | --- | --- | --- | --- | --- | --- | --- | --- | --- | --- | --- | --- | --- | --- | --- |
| Ibuprofen-Magnesiumsalz [Ibuprofen-Mg] | 160 mg Ibuprofen/ml | 250 mg Ibuprofen/ml | 125 mg Ibuprofen/ml | 35 mg Ibuprofen/ml | 17 mg Ibuprofen/ml | 500 | 330 mg Ibuprofen/ml | 8 mg Ibuprofen/ml | 450 mg Ibuprofen/ml | 260 | 0,4 mg Ibuprofen/ml | 40 | 480 | 380 | 7 mg Ibuprofen/ml |
| Aluminiumdiibuprofen (1 : 2) [Ibuprofen-Al (2 : 1)] | 0,8 mg Ibuprofen/ml | < 0,1 mg Ibuprofen/ml | < 0,1 mg Ibuprofen/ml | 0,5 mg Ibuprofen/ml | 0,3 mg Ibuprofen/ml | 2 | < 0,1 mg Ibuprofen/ml | < 0,1 mg Ibuprofen/ml | 4,5 mg Ibuprofen/ml | 1 | < 0,1 mg Ibuprofen/ml | 2 | 6 | 4 | < 0,1 mg Ibuprofen/ml |
